Where two headings read alike, the source gives them in different places.
Legend:
serum HBV DNA [1] = details: ADV 10 mg daily, HBeAg negative patients; cited from earlier work
serum HBV DNA [2] = details: ADV 10 mg daily, HBeAg positive patients; cited from earlier work
serum HBV DNA [3] = assay: Phase 3 clinical study GS-98-438, HBeAg negative chronic hepatitis B patients; format: in vivo, human
Experimental: The median serum HBV DNA levels declined by 3.5 and 3.9 log10 copies/mL from baseline to week 48 in the ADV 10 mg dose groups in HBeAg positive (Study GS-98-437) and in HBeAg negative (Study GS-98-438) chronic hepatitis B patients, respectively.
Adefovir resistance surveillance was performed in a blinded manner in HBeAg negative chronic hepatitis B patients treated for 96 weeks in a Phase 3 double-blind, randomized, placebo-controlled clinical study (GS-98-438) of adefovir dipivoxil 10 mg (ADV). The analysis included 79 patients who received ADV 10 mg daily for the first 48 weeks and were randomized to also receive ADV 10 mg during the second 48 weeks.
The reverse transcriptase (RT) domain of the HBV polymerase gene (rt1 to rt344) was sequenced for HBV DNA extracted from baseline and week 96 serum samples (or the last on-study sample) for the 79 patients treated continuously with ADV for 96 weeks if the samples had detectable serum HBV DNA (≧1000 copies/mL by Roche Amplicor™ PCR assay) at the time points tested.
Study GS-98-438 is a randomized, double-blind, placebo-controlled Phase 3 clinical study of the safety and efficacy of ADV for the treatment of patients with HBeAg negative/anti-HBe positive/HBV DNA positive chronic hepatitis B. A total of 184 patients received at least one dose of study medication during the first 48 weeks (n=61 and 123 for the placebo and ADV 10 mg groups, respectively). During the second 48 weeks, all placebo patients switched to ADV 10 mg daily while the ADV-treated patients were re-randomized to either continue ADV or receive placebo at a 2:1 ratio. Accordingly, all patients who received at least one dose of study drug during the second 48 weeks are classified into three groups: PLB-ADV (n=60), ADV-ADV (n=79), and ADV-PLB (n=40).
A virology substudy of Study GS-98-438 included all patients in the ADV 10 mg-ADV 10 mg group (n=79). The RT domain of the HBV polymerase gene from banked serum samples from these patients was genotypically analyzed at baseline, and either at week 96, or upon early termination during the second 48 weeks.
If the week 96 serum HBV DNA value was not available for a patient, the closest serum HBV DNA value prior to week 96 was used. All week 96 and the last on-drug samples are referred to as week 96 samples hereafter. Note that Roche Molecular Systems raised the lower limit of quantification of the HBV DNA PCR assay from 400 copies/mL to 1,000 copies/mL after Gilead completed the week 48 analyses for study 438.

[4] = test system: rtN236T+rtA181T double mutant HBV; assay: Adefovir susceptibility of rtN236T+rtA181T double mutant made by site-directed mutagenesis of patient-derived clone; format: cell-based, hepatitis B virus
Source text: (§1) One patient (0454-2506) with the rtN236T mutation also developed a second conserved site mutation rtA181T at week 96. However, all week 96 isolates derived from the patient encoding both rtN236T and rtA181T were replication deficient in vitro; the reason for this is unclear. To assess the adefovir sensitivity of HBV containing both rtN236T and rtA181Tmutations, an artificial construct was obtained by modifying an existing patient-derived HBV clone. The rtA181T mutation was introduced by site-directed mutagenesis into replicating HBV clones from patient 0454-2506 that already encoded rtN236T. The resulting double mutants were replication competent and were used for adefovir susceptibility testing. […] The rtA181T mutation was also introduced into a standard HBV lab strain (genotyped, ayw) to assess the individual contribution of the rtA181T mutation.

[5] = test system: rtK241E+rtK318Q mutant HBV; assay: Whole HBV genome cell culture drug susceptibility assay, rtK241E+rtK318Q patient-derived clones; details: adefovir, patient 0370-3503, rtK241E + rtK318Q
Experimental: Drug susceptibility of patient-derived clones was analyzed by transient transfection into HepG2 cells.
To investigate if these conserved site mutations conferred resistance to adefovir, adefovir susceptibility of HBV isolates derived from the above five patients was evaluated using a whole HBV genome cell culture assay as described above.

[6] = test system: wild-type lab HBV strain (ayw); assay: Adefovir susceptibility of standard HBV lab strain, wild-type; format: cell-based, hepatitis B virus
Source text: as §1

rtA181V mutant HBV = assay: Whole HBV genome cell culture drug susceptibility assay, rtA181V patient-derived clones; format: cell-based, hepatitis B virus; details: for IC50: Hepatitis B virus, HepG2, 168 h, HepG2, 7 days; for IC50 Fold Change (Week96/Baseline): adefovir
Source text: . The rtA181V mutation appears to confer a low degree of reduced susceptibility to adefovir relative to the adefovir-resistant rtN236T mutation (7- to 14-fold resistance to adefovir in vitro). […] In contrast, serum HBV DNA in the other patient (0624-1517) remained suppressed below 1000 copies/mL after a period of treatment interruption during which this mutation was detected (FIG. 2). […] The clinical significance of the rtA181V mutation is unclear based on the in vitro drug susceptibility data and the disparate clinical profiles of the two patients, although as noted it would have diagnostic utility for HBV infection.

rtN236T mutant HBV = assay: Whole HBV genome cell culture drug susceptibility assay, rtN236T patient-derived clones; format: cell-based, hepatitis B virus; details: for IC50 Fold Change (Week96/Baseline): adefovir; for susceptibility of the rtN236T mutant (in words): in vitro
[7] = test system: wild-type HBV (baseline patient-derived clones); assay: Whole HBV genome cell culture drug susceptibility assay, baseline wild-type patient-derived clones; format: cell-based, hepatitis B virus
[8] = test system: rtA181T mutant lab HBV strain (ayw); assay: Adefovir susceptibility of standard HBV lab strain carrying rtA181T; format: cell-based, hepatitis B virus
Source text: as §1

[9] = biological target: recombinant HBV polymerase (Hepatitis B virus genotype D subtype ayw, UniProt P03156); details: competitive with respect to dATP; read-out: inhibition constant (Ki); cited from earlier work
recombinant HBV polymerase, sequence (P03156 whole entry): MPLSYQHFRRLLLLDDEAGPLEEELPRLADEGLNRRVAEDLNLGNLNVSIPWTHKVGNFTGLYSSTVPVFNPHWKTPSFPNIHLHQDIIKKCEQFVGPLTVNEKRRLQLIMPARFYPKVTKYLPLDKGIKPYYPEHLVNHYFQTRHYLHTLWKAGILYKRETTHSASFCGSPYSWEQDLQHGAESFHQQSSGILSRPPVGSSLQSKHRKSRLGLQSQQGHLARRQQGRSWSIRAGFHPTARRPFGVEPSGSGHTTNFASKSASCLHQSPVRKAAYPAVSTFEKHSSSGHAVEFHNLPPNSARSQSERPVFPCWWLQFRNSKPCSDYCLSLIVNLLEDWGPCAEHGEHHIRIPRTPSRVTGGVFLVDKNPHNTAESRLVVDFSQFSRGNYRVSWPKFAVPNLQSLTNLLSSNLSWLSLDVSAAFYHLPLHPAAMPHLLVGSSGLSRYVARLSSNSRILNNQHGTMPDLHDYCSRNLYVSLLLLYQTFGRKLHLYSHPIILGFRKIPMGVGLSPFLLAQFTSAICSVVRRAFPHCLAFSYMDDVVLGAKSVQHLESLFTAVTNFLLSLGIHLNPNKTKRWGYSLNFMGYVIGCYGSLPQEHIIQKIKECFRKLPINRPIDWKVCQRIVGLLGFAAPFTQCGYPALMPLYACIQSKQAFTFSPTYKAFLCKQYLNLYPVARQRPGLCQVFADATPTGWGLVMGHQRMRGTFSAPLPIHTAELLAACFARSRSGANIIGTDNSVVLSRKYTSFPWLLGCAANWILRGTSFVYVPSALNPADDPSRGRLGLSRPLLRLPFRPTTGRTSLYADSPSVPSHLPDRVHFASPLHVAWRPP

[10] = Hepatitis B virus, read-out: IC50 rtN23T Mutant, patient-derived HBV strain carrying rtN236T (Table 7)
[11] = patient-derived HBV strain carrying rtN236T (Table 7)
[12] = Hepatitis B virus, read-out: IC50 Wild-type, patient-derived HBV strain, wild-type (Table 7)
[13] = patient-derived HBV strain carrying rtN236T (Table 7), read-out: IC50 rtN23T Mutant
[14] = patient-derived HBV strain, wild-type (Table 7), read-out: IC50 Wild-type

In the case of `CC(C)(C)C(=O)OCOP(=O)(COCCn1cnc2c(N)ncnc21)OCOC(=O)C(C)(C)C` [ADV, adefovir dipivoxil], the “median serum HBV DNA decline from baseline to week 48” value (serum HBV DNA [1]) is listed as 3.9 log10 copies/mL, the “median serum HBV DNA decline from baseline to week 48” value (serum HBV DNA [2]) is listed as 3.5 log10 copies/mL and the “serum HBV reduction from baseline after initiation of therapy” value (serum HBV DNA [3]; both patients who developed rtN236T (0626-1537, 0454-2506)) is listed as “less than 2 log10 copies/mL”. For the same molecule, the “patients with serum HBV DNA levels <1000 copies/mL at week 96 (or last on-study visit)” value (serum HBV DNA [3]; of 79 patients, ADV 10 mg daily for 96 weeks) was 58 patients, the “reduction in serum HBV DNA” value (serum HBV DNA [3]; patient 0370-3503 (rtK241E+rtK318Q), week 96) was > 5 log10 and the “serum HBV DNA” value (serum HBV DNA [3]; patient 0370-3503, week 96) was 3.1 log10 copies/mL. The “serum HBV DNA” value (serum HBV DNA [3]; patient 0370-3503, week 156) was 3.6 log10 copies/mL.

For `Nc1ncnc2c1ncn2CCOCP(=O)(O)O` [Adefovir, adefovir], the IC50 ([4]; Hepatitis B virus, patient 0454-2506 derived clone, rtN236T + rtA181T (rtA181T introduced by site-directed mutagenesis)) was 530 ± 260 nM, the “IC50 Fold Change from Wild-Type” value ([4]; adefovir, patient 0454-2506 derived, rtN236T + rtA181T) was 2.5 fold and the “IC50 Fold Change (Week96/Baseline)” value [5] was 0.9 fold. For the same molecule, the “IC50 Fold Change (Week96/Baseline)” value ([5]; listed as adefovir) was “less than 0.9 fold”, the IC50 ([6]; Hepatitis B virus, lab HBV strain, wild-type) was 190 ± 30 nM and the “IC50 Fold Change from Wild-Type” value ([6]; adefovir, lab HBV strain wild-type, reference) was 1 fold. The IC50 (rtA181V mutant HBV; read-out: Adefovir IC50 Week 96, patient 0624-1517, week 96 rtA181V clones) was 520 ± 110 nM, the IC50 (rtA181V mutant HBV; read-out: Adefovir IC50 Week 96, patient 0624-1564, week 96 rtA181V clones) was 620 ± 290 nM and the “IC50 Fold Change (Week96/Baseline)” value (rtA181V mutant HBV; patient 0624-1517, rtA181V) was 2.5 fold. For the same molecule, the “IC50 Fold Change (Week96/Baseline)” value (rtA181V mutant HBV; patient 0624-1564, rtA181V) was 3.0 fold, the IC50 (rtN236T mutant HBV; Hepatitis B virus, HepG2, 168 h, read-out: Adefovir IC50 Week 96, patient 0454-2506, week 96 clones with single rtN236T, HepG2, 7 days) was 1550 ± 910 nM and the IC50 (rtN236T mutant HBV; Hepatitis B virus, HepG2, 168 h, read-out: Adefovir IC50 Week 96, patient 0626-1537, week 96 rtN236T clones, HepG2, 7 days) was 3640 ± 2780 nM. The IC50 (rtN236T mutant HBV; [10]) was 1470 nM, the “IC50 Fold Change (Week96/Baseline)” value (rtN236T mutant HBV; patient 0454-2506, single rtN236T) was 7.3 fold and the “IC50 Fold Change (Week96/Baseline)” value (rtN236T mutant HBV; patient 0626-1537, rtN236T) was 13.8 fold. For the same molecule, the “IC50 Fold Change (rtN236T/Wild-type)” value (rtN236T mutant HBV; [11]) was 9.6 fold, the IC50 ([7]; Hepatitis B virus, HepG2, 168 h, read-out: Adefovir IC50 Baseline, patient 0370-3503, baseline clones, HepG2, 7 days) was 160 ± 10 nM and the IC50 ([7]; Hepatitis B virus, HepG2, 168 h, read-out: Adefovir IC50 Baseline, patient 0454-2506, baseline wild-type clones, HepG2, 7 days) was 210 ± 10 nM. For the same molecule, the IC50 ([7]; Hepatitis B virus, HepG2, 168 h, read-out: Adefovir IC50 Baseline, patient 0624-1517, baseline clones, HepG2, 7 days) was 210 ± 70 nM, the IC50 ([7]; Hepatitis B virus, HepG2, 168 h, read-out: Adefovir IC50 Baseline, patient 0624-1564, baseline clones, HepG2, 7 days) was 210 ± 10 nM and the IC50 ([7]; Hepatitis B virus, HepG2, 168 h, read-out: Adefovir IC50 Baseline, patient 0626-1537, baseline clones, HepG2 transient transfection, 7 days) was 260 ± 170 nM. For the same molecule, the IC50 [7, 12] was 150 nM, the “IC50 Fold Change from Wild-Type” value ([7]; adefovir, patient 0454-2506 wild-type (baseline), reference) was 1 fold and the IC50 ([8]; Hepatitis B virus) was 240 ± 30 nM. For the same molecule, the “IC50 Fold Change from Wild-Type” value ([8]; adefovir) was 1.3 fold.

In the case of `C=C1[C@H](CO)[C@@H](O)C[C@@H]1n1cnc2c(=O)[nH]c(N)nc21` [Entecavir, entecavir], the IC50 (rtN236T mutant HBV; [10]) is reported as 0.26 nM, the “susceptibility of the rtN236T mutant (in words)” value (rtN236T mutant HBV) is reported as “remained susceptible” and the “IC50 Fold Change (rtN236T/Wild-type)” value (rtN236T mutant HBV; [11]) is reported as 0.67 fold. The IC50 [7, 12] was 0.39 nM.

In the case of `Cc1cn([C@@H]2C[C@@H](O)[C@H](CO)O2)c(=O)[nH]c1=O` [L-dT], the “susceptibility of the rtN236T mutant (in words)” value (rtN236T mutant HBV) is reported as “remained susceptible”, the “IC50 Fold Change (rtN236T/Wild-type)” value (rtN236T mutant HBV; [11]) is reported as 2.4 fold and the IC50 (rtN236T mutant HBV; [13]) is reported as 330 nM. It also gave an IC50 [7, 14] of 140 nM.

For `Nc1ccn([C@@H]2CS[C@H](CO)O2)c(=O)n1` [Lamivudine, lamivudine], the IC50 (rtN236T mutant HBV; [10]) was 70 nM, the IC50 (rtN236T mutant HBV; Hepatitis B virus, read-out: Lamivudine IC50 Week 96, patient 0454-2506, week 96 clones with single rtN236T) was 70 nM and the “lamivudine IC50 change” value (rtN236T mutant HBV; rtN236T mutant in vitro) was ≤ 3.5 fold.

In the case of `COc1ccc(Sc2nc(N)nc3c2ncn3CCOCP(=O)(OCC(F)(F)F)OCC(F)(F)F)cc1` [MCC-478], the IC50 (rtN236T mutant HBV; [10]) is reported as 250 nM, the “IC50 Fold Change (rtN236T/Wild-type)” value (rtN236T mutant HBV; [11]) is reported as 8.6 fold and the IC50 [7, 12] is reported as 30 nM.

In the case of `C[C@H](Cn1cnc2c(N)ncnc21)OCP(=O)(O)O` [Tenofovir, tenofovir], the “IC50 Fold Change (rtN236T/Wild-type)” value (rtN236T mutant HBV; [11]) is reported as 4.2 fold, the IC50 (rtN236T mutant HBV; [13]) is reported as 550 nM and the IC50 [7, 14] is reported as 130 nM.

In the case of `Nc1ncnc2c1ncn2CCOCP(=O)(O)OP(=O)(O)OP(=O)(O)O` [adefovir diphosphate], the Ki [9] is listed as 100 nM.
